The values below come from US10005884B2, “Methods for purifying 2-aryl-3,3-bis(hydroxyaryl)phthalimidines” (SABIC GLOBAL TECHNOLOGIES B.V., priority 2014, dated 2018).

A short description of this series: Solubility of PPPBP in methanol (amount of methanol required to bring PPPBP into solution). Format: physicochemical. From the text:
Studies were undertaken to determine the amount of methanol required to bring PPPBP into solution at room temperature and at elevated temperature.

Structures are written as SMILES.

For `O=C1c2ccccc2C(c2ccc(O)cc2)(c2ccc(O)cc2)N1c1ccccc1` [Pure PPPBP, 2-phenyl-3,3-bis(4-hydroxyphenyl)phthalimidine], the Volumes of methanol runs as follows: (at reflux temp) 17 volumes; (at room temp) 20 volumes.
